Experiments:
[1] = tested on: SAC signal response (p-H3); assay: Western blot of p-H3 (SAC signal response), nocodazole-treated HGADFN003 cells; type: cell-based, human; conditions: nocodazole 200 ng ml^–1 with UPCP
Procedure: (§1) Western blot was performed as previously described. Cells were lysed in 1× Laemmli sample buffer after washing twice in cold PBS without calcium and magnesium. Protein concentrations were determined using the bicinchoninic acid (BCA) protein assay. Protein lysates were subjected to SDS–PAGE, transferred to 0.45-μm pore size hydrophobic PVDF transfer membrane (Merck Millipore), detected with the appropriate primary antibodies coupled with horseradish peroxidase-conjugated corresponding secondary antibodies, and visualized using enhanced chemiluminescence ECL reagent (GE Healthcare). The Tanon 5500 high-definition low-illumination CCD system (Tanon FLI Capture v.1.02) was used to capture chemiluminescent signals.

[2] = tested on: BUBR1 in IMR90-progerin cells; assay: Western blot of BUBR1 in progerin-expressing IMR90 cells; type: cell-based, human
Procedure: as §1

IMR90-progerin cells = assay: γH2AX foci in IMR90-progerin cells; type: cell-based, human; conditions: for γH2AX foci per cell, n>10 / γH2AX foci per cell, n≤10: IMR90-Flag-progerin+UPCP
Procedure: Immunofluorescence was performed as described previously. Cells were plated on cover slips in 12-well plates, left overnight before the treatment. Cells were fixed in 1% formaldehyde in culture medium for 10 min at 37 °C and permeabilized with 0.2% Triton X-100 in PBS for 10 min at room temperature. Cells were washed twice in PBS and blocked for 1 h with 5% BSA in PBS and then incubated with primary antibodies at 4 °C overnight, washed three times in PBS and incubated with secondary antibodies for 1 h at room temperature. Cell nuclei were counterstained with a 500 nM concentration of 4,6-diamidino-2-phenylindole (DAPI) (Sigma). Images were acquired by a fluorescence microscope (OLYMPUS FV-1000, Carl Zeiss LSM880 or Leica DMi8) and analyzed with software NIS-Elements AR v.5.0.1 (Nikon), FLUOVIEW v.4.2b (OLYMPUS), ZEN v.2.3 SP1 (Carl Zeiss) and Leica Application Suite X v.3.6.0.24 (Leica). Cells were quantified by investigators who were blinded to the identity of the analyzed cell.

Lmna^G609G/G609G mice = assay: Survival (Kaplan–Meier) of Lmna^G609G/G609G mice; type: in vivo, mouse
Excerpt: All animal experiments were approved by the Ethics Committee of School of Life Sciences, Northeast Normal University, China (AP20191011) and carried out in accordance with the relevant guidelines: National Standards of the People’s Republic of China (GB/T 35892–2018), Laboratory Animal—Guideline for Ethical Review of Animal Welfare. We generated a mouse model (ICR background), carrying the Lmna^G609G using the BE4-Gam system. The protocols for the BE4-Gam system and microinjection of pronuclear-stage embryos have been described in detail previously[37],[38],[59]. Briefly, a mixture of BE4-Gam mRNA (200 ng μl^–1) and sgRNA-Lmna (30 ng μl^–1) was coinjected into the cytoplasm of pronuclear-stage embryos of the mouse. The injected embryos were transferred to embryo culture medium for 30–60 min, followed by transferring the injected embryos into the recipient mother. The embryos continued to develop and the founder mice (referred to as F0) were born: wild-type mice (Lmna^+/+), heterozygous mice (Lmna^G609G/+) and homozygous mice (Lmna^G609G/G609G). F1 heterozygous mice (Lmna^G609G/+) were obtained by crossing F0 heterozygous mice (Lmna^G609G/+). F2 homozygous mice (Lmna^G609G/G609G) were obtained by crossing F1 heterozygous mice (Lmna^G609G/+). We selected F2 mice (Lmna^+/+ and Lmna^G609G/G609G) for subsequent experiments. The mice were housed with a 12-h light/dark cycle (6:00 to 18:00) in a 20 °C and 40% humidity-controlled room. Water and rodent feed were fed ad libitum.
For UPCP injection, 14-day-old Lmna^G609G/G609G mice were injected intraperitoneally with either PBS or UPCP (20 mg kg^–1, every other day) and wild-type mice were injected with PBS. All phenotypic analyses were performed after 12 weeks of treatment with UPCP. Bodyweight and lifespan were monitored after UPCP treatment. The survival rate was analyzed by the Kaplan–Meier method. We only included mice that were of sufficient bodyweight at the start of the experiment, typically at least 80% of the average littermate weight of the same sex and genotype. All animals meeting criteria for inclusion were then divided randomly into three groups according to genotype (Lmna^+/+, Lmna^G609G/G609G-Mock and Lmna^G609G/G609G-UPCP).

H-YGRKKRRQRRRYNLRSRTVLCGTCGQPADKASASGSGAQSPQNCSIM-OH (cysteines drawn unpaired) [UPCP, unique progerin C-terminal peptide]
SAC signal response (p-H3) [1]: repaired the SAC signal response
BUBR1 abundance [2]: upregulated BUBR1
γH2AX foci per cell, n>10 (IMR90-progerin cells; replicate 1): 75%
γH2AX foci per cell, n≤10 (IMR90-progerin cells; replicate 1): 25%
γH2AX foci per cell, n>10 (IMR90-progerin cells; replicate 2): 69%
γH2AX foci per cell, n≤10 (IMR90-progerin cells; replicate 2): 31%
γH2AX foci per cell, n>10 (IMR90-progerin cells; replicate 3): 61%
γH2AX foci per cell, n≤10 (IMR90-progerin cells; replicate 3): 39%
γH2AX-53BP1 foci (IMR90-progerin cells; IMR90-progerin cells): lower level of γH2AX-53BP1 foci
mean survival (Lmna^G609G/G609G mice; 20 mg kg^–1 i.p. every other day from 14 days of age, PBS 100.9 days): 118.6 days
median survival (Lmna^G609G/G609G mice; 20 mg kg^–1 i.p. every other day from 14 days of age, n = 15 UPCP vs n = 17 PBS (100 days)): 117 days
individual survival (Lmna^G609G/G609G mice; 20 mg kg^–1 i.p. every other day, female, individual 1 of 9): 103 days
individual survival (Lmna^G609G/G609G mice; 20 mg kg^–1 i.p. every other day, female, individual 2 of 9): 110 days
individual survival (Lmna^G609G/G609G mice; 20 mg kg^–1 i.p. every other day, female, individual 3 of 9): 110 days
individual survival (Lmna^G609G/G609G mice; 20 mg kg^–1 i.p. every other day, female, individual 4 of 9): 111 days
individual survival (Lmna^G609G/G609G mice; 20 mg kg^–1 i.p. every other day, female, individual 5 of 9): 117 days
individual survival (Lmna^G609G/G609G mice; 20 mg kg^–1 i.p. every other day, female, individual 6 of 9): 126 days
individual survival (Lmna^G609G/G609G mice; 20 mg kg^–1 i.p. every other day, female, individual 7 of 9): 128 days
individual survival (Lmna^G609G/G609G mice; 20 mg kg^–1 i.p. every other day, female, individual 8 of 9): 130 days
individual survival (Lmna^G609G/G609G mice; 20 mg kg^–1 i.p. every other day, female, individual 9 of 9): 136 days
individual survival (Lmna^G609G/G609G mice; 20 mg kg^–1 i.p. every other day, male, individual 1 of 6): 104 days
individual survival (Lmna^G609G/G609G mice; 20 mg kg^–1 i.p. every other day, male, individual 2 of 6): 106 days
individual survival (Lmna^G609G/G609G mice; 20 mg kg^–1 i.p. every other day, male, individual 3 of 6): 116 days
individual survival (Lmna^G609G/G609G mice; 20 mg kg^–1 i.p. every other day, male, individual 4 of 6): 118 days
individual survival (Lmna^G609G/G609G mice; 20 mg kg^–1 i.p. every other day, male, individual 5 of 6): 129 days
individual survival (Lmna^G609G/G609G mice; 20 mg kg^–1 i.p. every other day, male, individual 6 of 6): 135 days
increase in lifespan (median survival) (Lmna^G609G/G609G mice; 20 mg kg^–1 i.p. every other day, vs PBS-treated mice): 17%
